Earlier results in patent US20040142823A1, “Adjuvant compositions and pesticides” (priority 2003, published 2004).
Read-outs that look alike come from different tables or passages of the source.

Compound: CNC(=O)CSP(=S)(OC)OC [Cygon, dimethoate]
- Time to lose 50 percent of pest control power (mixed in water of pH 9): 48 min
- Time to lose 50 percent of pest control power (pH of 6): 720 min
